US11091496B2, “Opioid ketal compounds and uses thereof” (priority 2013, dated 2021)
Where two headings read alike, the source gives them in different places.

Tests used:
[1] = Hydrolysis in Simulated Gastric Fluid (SGF) at 37° C., LC/MS; conditions: from hydrocodone 2,4-pentanediol ketal isomers, 1 mg/ml, SGF 37° C.
[2] = assay type: physicochemical; conditions: 1 mg/ml, 0.1 N HCl 37° C.; for % hydrocodone, % Ketal in hydrolysis mixture: hydrocodone 1,3-propanediol ketal; for Hydrocodone, 2R,5R ketal in hydrolysis mixture: hydrocodone 2R,5R-hexanediol ketal tested separately; for Hydrocodone, 2S,5S ketal in hydrolysis mixture: hydrocodone 2S,5S-hexanediol ketal tested separately

Compound: COc1ccc2c3c1O[C@H]1C(=O)CC[C@H]4[C@@H](C2)N(C)CC[C@]314 [Hydrocodone, hydrocodone, reference compound]
- Hydrocodone in hydrolysis mixture ([1]; 0 h): 1
- Hydrocodone in hydrolysis mixture ([1]; 0.58 h): 33.7
- Hydrocodone in hydrolysis mixture ([1]; 1.25 h): 45.9
- Hydrocodone in hydrolysis mixture ([1]; 2 h): 48.1
- Hydrocodone in hydrolysis mixture ([1]; 3 h): 55.1
- Hydrocodone in hydrolysis mixture ([1]; 4 h): 58.3
- % hydrocodone, % Ketal in hydrolysis mixture ([2]; 0 h): 6.9%
- % hydrocodone, % Ketal in hydrolysis mixture ([2]; 0.57 h): 34.3%
- % hydrocodone, % Ketal in hydrolysis mixture ([2]; 1.25 h): 47.7%
- % hydrocodone, % Ketal in hydrolysis mixture ([2]; 2 h): 58.2%
- % hydrocodone, % Ketal in hydrolysis mixture ([2]; 3 h): 67.8%
- % hydrocodone, % Ketal in hydrolysis mixture ([2]; 4 h): 74.4%
- Hydrocodone, 2R,5R ketal in hydrolysis mixture ([2]; 0 h): 26.1
- Hydrocodone, 2R,5R ketal in hydrolysis mixture ([2]; 0.5 h): 65.4
- Hydrocodone, 2R,5R ketal in hydrolysis mixture ([2]; 1.25 h): 88.6
- Hydrocodone, 2R,5R ketal in hydrolysis mixture ([2]; 2 h): 97.3
- Hydrocodone, 2R,5R ketal in hydrolysis mixture ([2]; 3 h): 100
- Hydrocodone, 2R,5R ketal in hydrolysis mixture ([2]; 4 h): 100
- Hydrocodone, 2S,5S ketal in hydrolysis mixture ([2]; 0 h): 18.02
- Hydrocodone, 2S,5S ketal in hydrolysis mixture ([2]; 0.5 h): 47.82
- Hydrocodone, 2S,5S ketal in hydrolysis mixture ([2]; 1.25 h): 64.89
- Hydrocodone, 2S,5S ketal in hydrolysis mixture ([2]; 2 h): 89.81
- Hydrocodone, 2S,5S ketal in hydrolysis mixture ([2]; 3 h): 95.71
- Hydrocodone, 2S,5S ketal in hydrolysis mixture ([2]; 4 h): 98
